Experimental data from patent US11413278B2, “Compounds and methods for promoting stress resistance” (priority 2015, dated 2022).
“Also recorded” adds a separate entry of the source. Read-outs that look alike come from different tables or passages of the source.

Columns and labels:
[1] = tested on: WI-38 cells; assay: MMS resistance assay; assay type: cell-based, human; conditions: YES/NO; for Assay 3: MMS-resistant: * indicates partial; for Assay 5: Triple resistant: H2O2, cadmium and MMS
Procedure: (§1) For many stress conditions tested previously, one significant correlation to longevity is the cellular resistance to H2O2 or CdCl2. Applicants then tested these small molecules, at five different final concentrations (0.25 μM to 20 μM), for cadmium and MMS resistance in WI-38 cells.
(§2) The setups on 384-well plates and incubation times were the same as for H2O2 until the time of incubation with the stressors, which was 12 hours for both cadmium and MMS assays. Applicants tested several conditions, including conditions used to assay fibroblasts from long-lived animals (Salmon et al., 2005). These conditions produced better results with the positive controls (KEAP1 and AKT1 siRNAs) in the MMS assay. Thus, for MMS, the cells were shifted from growth media—OptiMEM+10% FBS, to DMEM (Gibco)+2% BSA (no serum) just before adding small molecules, which occurred 24 hours before MMS addition.
(§3) Isolated small molecules were tested for MMS and cadmium resistance twice in two independent assays. Each small molecule was analyzed at five different concentrations (0.25 μM to 20 μM final concentration), with technical triplicates for each dose. Data were analyzed using a global variance t-test.

[2] = tested on: HTB-178 lung tumor cells (EGFR+, PIK3CA+, RB1−, TP53−); assay: Killing effects on HTB-178 tumor cells; assay type: cell-based, human; conditions: Assay 1(y), at 10 uM
[3] = tested on: C. elegans; assay: C. elegans lifespan assays (liquid and plate); assay type: in vivo, Caenorhabditis elegans; conditions: Caenorhabditis elegans, at 66 uM
[4] = tested on: WI-38 cells; conditions: for Assay 1: H2O2-resistant: YES/NO, if NO, possibly due to repeated freezing/thawing of stocks; for EC50: read-out: Est. ED50, dose response 0.6-20 μM, H2O2-resistance
[5] = biological target: T1, human PARP1 (Homo sapiens, UniProt P09874); assay: PARP inhibitor assay (HT Fluorescent Homogeneous PARP Inhibition Assay Kit); assay type: biochemical; conditions: 10 μM, in vitro
T1 construct: purchased Trevigen
T1 sequence (P09874 whole entry): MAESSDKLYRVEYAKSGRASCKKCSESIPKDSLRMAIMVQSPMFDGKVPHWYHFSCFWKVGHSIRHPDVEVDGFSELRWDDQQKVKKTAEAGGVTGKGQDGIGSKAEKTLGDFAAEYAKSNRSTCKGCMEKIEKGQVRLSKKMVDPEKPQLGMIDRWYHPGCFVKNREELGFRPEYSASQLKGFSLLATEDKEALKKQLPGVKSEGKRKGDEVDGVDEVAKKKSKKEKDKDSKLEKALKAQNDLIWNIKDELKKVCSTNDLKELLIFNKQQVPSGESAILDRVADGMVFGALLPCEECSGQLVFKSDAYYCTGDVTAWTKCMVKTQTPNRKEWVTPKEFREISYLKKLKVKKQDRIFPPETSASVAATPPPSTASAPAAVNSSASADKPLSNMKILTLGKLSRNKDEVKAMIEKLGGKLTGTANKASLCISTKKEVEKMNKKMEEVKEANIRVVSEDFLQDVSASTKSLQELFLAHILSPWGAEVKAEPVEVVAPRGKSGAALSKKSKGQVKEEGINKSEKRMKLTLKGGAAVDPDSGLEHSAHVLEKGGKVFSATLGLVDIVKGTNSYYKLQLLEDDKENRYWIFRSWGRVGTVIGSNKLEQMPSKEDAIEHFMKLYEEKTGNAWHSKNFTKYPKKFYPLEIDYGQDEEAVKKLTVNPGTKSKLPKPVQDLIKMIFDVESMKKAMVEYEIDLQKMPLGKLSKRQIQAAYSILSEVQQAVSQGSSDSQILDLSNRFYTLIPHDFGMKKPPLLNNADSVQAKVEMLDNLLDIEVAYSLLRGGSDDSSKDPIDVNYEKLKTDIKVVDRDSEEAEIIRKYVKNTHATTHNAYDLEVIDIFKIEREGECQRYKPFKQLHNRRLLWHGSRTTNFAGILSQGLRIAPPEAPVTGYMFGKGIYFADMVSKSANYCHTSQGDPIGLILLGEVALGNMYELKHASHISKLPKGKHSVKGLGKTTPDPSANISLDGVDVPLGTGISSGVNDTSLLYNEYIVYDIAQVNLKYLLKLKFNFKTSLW
Procedure: (§4) The assay was performed with the HT Fluorescent Homogeneous PARP Inhibition Assay Kit (Trevigen), following manufacturer's instructions. Briefly, nicotinamide adenine dinucleotide, human PARP1 and activated-DNA solution was added onto a 96-well plate. 54 repurchased small molecules, at 10 μM final concentration, were introduced onto the 96-well assay plate and incubated in a humid chamber at room temperature for 30 min in dark. Cycling mixture, with resazurin and cycling enzyme diaphorase, was then added and incubated further for 1 hr in dark. Reaction was terminated by adding the stopping buffer.
as §4, with “(Trevegen),” for “(Trevigen),”, “stopped” for “terminated”

[6] = tested on: WI-38 cells; assay: CdCl2 (cadmium) resistance assay; assay type: cell-based, human; conditions: YES/NO; for Assay 2: Cadmium-resistant: * indicates partial
Procedure: as §1, §2, §3

[7] = tested on: human dermal fibroblast (HDF) primary cells; assay: H2O2-resistance in primary human dermal fibroblasts; assay type: cell-based; conditions: YES/NO
[8] = tested on: FOXO3; assay: qPCR analysis of FOXO3-regulated genes; assay type: cell-based, human; conditions: Homo sapiens, 24 h, Assay 10(m), at 10 uM, qPCR
Procedure: (§5) For qPCR analysis, WI-38 cells were treated with small molecules (at 10 μM) (biological quadruplicates) for 24 hrs and processed for RNA isolation and reverse transcription (RT) with the Cells-to-Ct Kit (Life Technologies), following manufacturer's instructions. RT products were diluted with H2O and used for qPCR analysis on an ABI 7300 system (Life Technologies) (technical triplicates). Relative expression levels of target genes were normalized to the genes B2M, PPIA and GAPDH. To knock down the expression of FOXO3 or NRF2, WI-38 cells were transfected, using the RNAiMAX reagents (Life Technologies), with siRNA oligos (at 10 nM final concentration, 10 ml culture medium) for FOXO3 (Life Technologies) or NRF2 (Integrated DNA Technologies) on 10-cm petri dishes for 36 hrs, and then detached and aliquoted onto 96-well (for qPCR analysis) or 384-well plates (for H2O2-stress treatment). ˜24 hrs later, small molecules were introduced and incubated with cells for 24 hrs. Cells were then either processed with the Cells-to-Ct Kit to prepare RT products for qPCR analysis or subjected to H2O2 (700 μM) for 3 hrs and assayed for viability. The knockdown efficiency of FOXO3 or NRF2 was checked at 36 hrs post-transfection and at the end as well.
(§6) For qPCR analysis, WI-38 cells were treated with small molecules (at 10 μM) (biological quadruplicate) for 24 hrs and processed for RNA isolation and reverse transcription (RT) with the Cells-to-Ct Kit (Life Technologies), following manufacturer's instructions. RT products were diluted with H2O and used for qPCR analysis on a LightCycler 480 system (Roche) (technical triplicates). Relative expression levels of target genes were normalized to the genes B2M, PPIA and GAPDH. To knock down the expression of FOXO3 or NRF2, WI-38 cells were transfected with siRNA oligos (at 10 nM final concentration) for FOXO3 (Life Technologies) or NRF2 on 10-cm petri dish for 36 hrs, and then detached and aliquoted onto 96-well plates. ˜24 hrs later, small molecules were introduced and incubated with cells for 24 hrs. Cells were then processed with the Cells-to-Ct Kit to prepare RT products for qPCR analysis. The knockdown efficiency of FOXO3 or NRF2 was checked at 36 hrs post-transfection and at the end as well.
Many perturbations that increase lifespan and stress resistance in animals do so in a FOXO-dependent fashion (Kenyon, 2010c). Humans have several FOXO genes, but FOXO3, which promotes stress resistance in mammalian cell culture (Kops et al., 2002; Nemoto and Finkel, 2002; Tran et al., 2003), is the one that has been linked to exceptional longevity in humans (Anselmi et al., 2009; Flachsbart et al., 2009; Li et al., 2009; Pawlikowska et al., 2009; Soerensen et al., 2010; Willcox et al., 2008). FOXO1, in contrast, appears to be responsible for some symptoms of diabetes in mouse models (Cheng and White, 2011). For this reason, applicants have focused on analyzing potential ability of our small molecules to activate FOXO3. […] Another 4 molecules (Gr-7A, Gr-7C, O12 and O23) could induce robust expression (greater than 1.5-fold) of at least 2 FOXO3 target genes.

[9] = tested on: NRF2; assay: qPCR analysis of NRF2-regulated genes; assay type: cell-based, human; conditions: Homo sapiens, 24 h, Assay 12(o), at 10 uM, qPCR
Procedure: as §5, §6
NRF2/SKN-1, the oxidative stress and xenobiotic phase 2 detoxification protein, can extend animal lifespan (Sykiotis and Bohmann, 2008; Tullet et al., 2008). Applicants analyzed these small molecules for their ability to increase the expression of NRF2-regulated genes, including HMOX1 (heme oxygenase (decycling) 1; anti-oxidant), NQO1 (NAD(P)H dehydrogenase, quinone 1; phase 2 detoxification enzyme), GCLC (glutamate-cysteine ligase, catalytic) and GSTM1 (glutathionine S transferase) (Hur and Gray, 2011; Suzuki et al., 2013).

[10] = tested on: NRF2; assay: in vitro; assay type: cell-based, human; conditions: 10 uM; YES/NO
Procedure: as §5, §6
Of these, O15 and O20 consistently (in 3 of 3 experiments) required NRF2 to promote H2O2-resistance, and their resistance capacities were reduced by ˜90% on average upon NRF2 knockdown under conditions tested.

[11] = Assay 2(z), 1.0 × 10^9 bacteria/ml, wild type + FuDR (2012 July), read-out: Lifespan assay in liquid
[12] = Assay 3(aa), 2.5 × 10^9 bacteria/ml, wild type + FuDR, read-out: Lifespan assay in liquid
[13] = Assay 4(ab), 2.0 × 10^10 bacteria/ml, CF512 worms, no FuDR, read-out: Lifespan assay on plates
[14] = read-out: Induction of FOXO3-regulated genes: SOD2 normalized fold-change

Row | Compound | Assay 3: MMS-resistant [1] | Assay 5: Triple resistant [1] | Potential killing effects on HTB-178 tumor cells, 1st [2] | ILS at 66 µM [3, 11] [%] | ILS at 66 µM [3, 12] [%] | ILS at 66 µM [3, 13] [%] | Assay 1: H2O2-resistant [4] | EC50 [4] [µM] | Inhibition of PARP1 [5] | Assay 4: H2O2- & Cd-resistant [6] | Assay 2: Cadmium-resistant [6] | Assay 6: H2O2-resistant, at 10 uM, human dermal fibroblast (HDF) primary cells [7] | Potential killing effects on HTB-178 tumor cells, 2nd [2] | fold induction at 10 µM [8, 14] | further results
1 | Oc1nnc(Cc2ccncc2)c2ccccc12 [Gr-2B] | YES | YES | YES; | 2.5 | -1.1 | 14.1 | YES | 3.05 | inhibitors of PARP1; also recorded: PARP inhibitors | YES | YES | YES |  |  | 
2 | CC(Nc1cc(C)ccn1)=C(C#N)C#N [O16] |  |  | YES; | 16.8 | 11.4 | 19.7 |  | 20 |  |  |  | YES | YES. |  | ILS at 66 µM ([3]; Assay 5(ac), 1.0 × 10^11 bacteria/ml, CF512 worms, no FuDR, read-out: Lifespan assay on plates): 9.8%; ILS at 66 µM ([3]; Assay 6(ad), 2.0 × 10^10 bacteria/ml, CF512 worms, no FuDR, read-out: Lifespan assay on plates): 9.9%; ILS at 66 µM ([3]; Assay 7(ae), 1.0 × 10^11 bacteria/ml, CF512 worms, no FuDR, read-out: Lifespan assay on plates): 12.1%
3 | O=C(CCCc1nnc2n3nc(-c4ccccc4)nc3c3ccccc3n12)N1CCOCC1 [O8] |  |  | YES; | 6.6 | 3.8 | 10 |  | 20 |  |  |  | YES |  | 1.07 | fold induction at 10 µM ([9]; read-out: Induction of NRF2-regulated genes: GSTM1 normalized fold-change): 0.82
4 | CC(COc1ccc2c(c1)OCO2)NC(=O)Cc1nnc(O)c2ccccc12 (stereo not drawn) [Gr-2E] |  |  | YES; | 3.3 | 4 | 9.7 | YES | 3.82 | PARP inhibitors | YES | YES | YES |  |  | Assay 17: NRF2-dependency for H2O2-resistance [10]: YES
5 | COc1cc(-c2nc(C(N)=O)c3nc(O)n(-c4cccc(C)c4)c3n2)cc(Br)c1O [O9] | YES | YES | YES; | 6.6 | 1.3 | -0.3 | YES | 14.2 |  | YES | YES |  | YES. | 1.15 | fold induction at 10 µM ([8]; read-out: Induction of FOXO3-regulated genes: SESN1 normalized fold-change): 1.19; fold induction at 10 µM ([8]; read-out: Induction of FOXO3-regulated genes: TXNIP normalized fold-change): 1.72; fold induction at 10 µM ([9]; read-out: Induction of NRF2-regulated genes: HMOX1 normalized fold-change): 1.97; fold induction at 10 µM ([9]; read-out: Induction of NRF2-regulated genes: NQO1 normalized fold-change): 1.32
